Experiment [1] deals with SNU-638. Nature of the experiment: Antiproliferative activity against human SNU638 cells assessed as reduction in cell viability after 24 hrs by CCK8 assay. It counts as functional, cell-based. To be noted: SNU-638, 24 h. Background: Tetrazolium assays rely on reduction of a dye to a coloured formazan, in cell work by metabolically active cells.
Experiment [2] concerns HL-60. Nature of the experiment: Antiproliferative activity against human HL60 cells assessed as cell viability at 150 uM by MTT assay relative to control. It counts as functional. Conditions: read-out: Activity.
A short description of experiment [3]: Antiproliferative activity against human SNU601 cells assessed as reduction in cell viability after 24 hrs by CCK8 assay. It counts as functional, cell-based. Conditions: SNU-601, 24 h.
In experiment [4] the test system is MKN-1. Nature of the experiment: Antiproliferative activity against human MKN1 cells assessed as reduction in cell viability after 24 hrs by CCK8 assay. It counts as functional, cell-based. Conditions: MKN-1, 24 h.
Experiment [5] deals with AGS. Nature of the experiment: Antiproliferative activity against human AGS cells assessed as reduction in cell viability after 24 hrs by CCK8 assay. Type of experiment: functional, cell-based.
Experiment [6] relates to U-87 MG. Nature of the experiment: Induction of apoptosis in human U87MG cells assessed as increase in apoptotic cells at 50 uM after 24 hrs by Annexin V-FITC/propidium iodide staining based flow cytometric analysis relative to control. Type of experiment: functional, U-87MG ATCC. (In flow cytometry, cells or beads pass a laser one at a time.)
The nature of experiment [7]: Antiproliferative activity against human SNU484 cells assessed as reduction in cell viability after 24 hrs by CCK8 assay. To be noted: SNU-484, 24 h. It counts as functional, cell-based.
Experiment [8] concerns L1210. Nature of the experiment: Cytotoxicity against mouse L1210 cells assessed as reduction in cell viability after 48 hrs by MTT assay. Type of experiment: functional, cell-based. To be noted: L1210, 48 h.
The test system of experiment [9] is A549. Nature of the experiment: Cytotoxicity against human A549 cells assessed as reduction in cell viability after 48 hrs by MTT assay. It counts as functional, cell-based. To be noted: A549, 48 h.
In experiment [10] the test system is P388. Nature of the experiment: Cytotoxicity against mouse P388 cells assessed as reduction in cell viability after 48 hrs by MTT assay. Type of experiment: functional, cell-based. To be noted: P388, 48 h.
Experiment [11] deals with HT-29. Nature of the experiment: Cytotoxicity against human HT-29 cells assessed as reduction in cell viability after 48 hrs by MTT assay. Conditions: HT-29, 48 h. It counts as functional, cell-based.
Experiment [12] in a line: Antitumour activity against mouse mammary cancer cells transplanted in Balb/c mouse assessed as tumour size at 6 mg/kg, ip for 13 days. Type of experiment: functional.
Experiment [13] concerns DU-145. Nature of the experiment: Growth inhibition of human DU145 cells at 200 uM after 24 hrs by WST-1 assay relative to control. Conditions: DU-145, 24 h, read-out: GI. Type of experiment: functional.
Experiment [14] has as its system HL-60. Nature of the experiment: Antiproliferative activity against human HL60 cells assessed as reduction in cell viability after 3 days by XTT assay. To be noted: HL-60, 72 h. Type of experiment: functional, cell-based.
Experiment [15] deals with MCF7. Nature of the experiment: Cytotoxicity against human MCF7 cells after 24 hrs by MTT assay. Type of experiment: functional, cell-based. To be noted: MCF7, 24 h.
Experiment [16] deals with HepG2. Nature of the experiment: Cytotoxicity against human HepG2 cells after 24 hrs by MTT assay. To be noted: HepG2, 24 h. It counts as functional, cell-based.
The test system of experiment [17] is NCI-H460. Nature of the experiment: Cytotoxicity against human NCI-H460 cells after 24 hrs by MTT assay. Conditions: NCI-H460, 24 h. It counts as functional, cell-based.
Experiment [18] relates to HeLa. Nature of the experiment: Cytotoxicity against human HeLa cells. It counts as functional, cell-based.
In experiment [19] the test system is HCT-116. Nature of the experiment: Cytotoxicity against human p53 positive HCT116 cells assessed as reduction in cell viability after 48 hrs by MTT assay. Type of experiment: functional. Conditions: HCT-116, 48 h, read-out: LD50 (the source's name).
For experiment [20], the system named is PC-14. Nature of the experiment: Induction of apoptosis in human PC14 cells assessed as increase in apoptotic cells at 30 uM after 24 hrs by Annexin V-FITC/propidium iodide staining based flow cytometric analysis relative to control. It counts as functional.
A short description of experiment [21]: Cytotoxicity against human U373 cells assessed as reduction in cell viability after 24 hrs by MTT assay. Type of experiment: functional, cell-based, U-373MG ATCC. Conditions: U373 MG.
Experiment [22] is described as follows: Cytotoxicity against human U251/CP2 cells assessed as reduction in cell viability after 24 hrs by MTT assay. Type of experiment: functional, cell-based. Conditions: U-251, 24 h.
Experiment [23] relates to C6. Nature of the experiment: Induction of apoptosis in rat C6 cells assessed as apoptotic cells at 200 uM after 24 hr in presence of holo-transferrin by Annexin V-FITC/propidium iodide staining based flow cytometric analysis relative to control. Type of experiment: functional.
Experiment [24] concerns U-937. Nature of the experiment: Antitumour activity against human U937 cells xenografted in NOD/SCID mouse assessed as tumor growth inhibition at 50 mg/kg, ip for 20 days relative to control. Type of experiment: functional. To be noted: U-937, ip, 480 h, read-out: TGI. For orientation: A xenograft is tissue or cells of one species grown in another, often human tumour cells in immunodeficient mice.

In experiment [25] the test system is HCT-116. Nature of the experiment: Induction of apoptosis in human HCT116 cells assessed as increase in apoptotic cells at 40 uM after 24 hrs by Annexin V-FITC/propidium iodide staining based flow cytometric analysis relative to control. It counts as functional.
For experiment [26], the system named is U-937. Nature of the experiment: Induction of apoptosis in human U937 cells assessed as increase in apoptotic cells at 60 uM after 24 hrs by Annexin V-FITC/propidium iodide staining based flow cytometric analysis relative to control. It counts as functional.
The nature of experiment [27]: Cytotoxicity against human 95-D cells by SRB assay. Type of experiment: functional, cell-based.
In experiment [28] the test system is SW-620. Nature of the experiment: Antitumour activity against human SW620 cells xenografted in mouse assessed as inhibition of tumour growth at 60 mg/kg relative to control. It counts as functional. Conditions: read-out: TGI.
Experiment [29] relates to MDA-MB-435. Nature of the experiment: Cytotoxicity against human MDA-MB-435 cells after 72 hrs by MTT assay. Type of experiment: functional, cell-based. Conditions: MDA-MB-435, 72 h.
The subject of experiment [30] is COLO 205. Nature of the experiment: Cytotoxicity against human COLO205 cells after 72 hrs by MTT assay. It counts as functional, cell-based. Conditions: COLO 205, 72 h.

We go through twelve compounds from ChEMBL document CHEMBL4342436, “Artemisia: a promising plant for the treatment of cancer” (Bioorg Med Chem, 2020).

Converted amounts (≈) assume the structure as drawn.

As a reminder, the IC50 is the concentration that gives 50% inhibition. Take `COc1ccc(-c2cc(=O)c3c(O)c(OC)c(O)cc3o2)cc1OC` [EUPATILIN]: the IC50 in [1], in [3], in experiment [4], in experiment [5] and in experiment [7] was 50 to 100 µM each time. In addition, the viability at 150 µM in [2] came out at 50%. In addition, the Activity in experiment [6] stood at 40%.
As for `C[C@H]1[C@@H](O[C@@H](C#N)c2ccc(Br)cc2)O[C@@H]2O[C@@]3(C)CC[C@H]4[C@H](C)CC[C@@H]1[C@@]24OO3`, the IC50 in experiment [8], in experiment [9], in experiment [10] and in experiment [11] was 0.01 to 0.49 µM in each case.
With `CCO[C@H]1O[C@@H]2O[C@@]3(C)CC[C@H]4[C@H](C)CC[C@@H]([C@H]1C)[C@@]24OO3` [ARTEMOTIL], the Activity in [12] was determined as 800 mm3.
In the case of `COc1c(O)cc2oc(Oc3ccc(O)cc3)cc(=O)c2c1O`, the inhibition of growth at 200 µM in experiment [13] was found to be 20%. For the same compound, the IC50 in experiment [14] fell in the range of 1.1 to 40.7 µg/mL (≈ 3.48 to 129 µM).
In the case of `CC1=CC(=O)C2=C(C)C[C@@H](O[C@@H]3O[C@H](CO)[C@@H](O)[C@H](O)[C@H]3O)[C@@H]3[C@@H](OC(=O)[C@H]3C)[C@@H]12`, the IC50 in experiment [15], in experiment [16] and in [17] was 26.8 to 48.7 µM in each case.
In the case of `O=c1cc(-c2ccc(O)c(O)c2)oc2cc(O)cc(O)c12` [LUTEOLIN], it took 16.3 µM to reach half-maximal inhibition in [18] (IC50).
Take `CCCCCCCCCCCCCCCCCCCCCCOC(=O)/C=C/c1ccc(O)cc1`: the CC50 in experiment [19] is 33.8 µM.
`C[C@H]1[C@@H](O)O[C@@H]2O[C@@]3(C)CC[C@H]4[C@H](C)CC[C@@H]1[C@@]24OO3` [ARTENIMOL]: the Activity in [20] was 45%; in experiment [23], 66.42%; in experiment [25], 48.3%; in experiment [26] it was 70%. Also, the IC50 in experiment [21] and in experiment [22] was 1.17 to 23.6 µg/mL (≈ 4.11 to 82.9 µM) throughout. In [24], the inhibition in vivo at 50 mg/kg came to 70%.
In experiment [27], `CC1(C)CCC[C@@]2(C)[C@H]1[C@H](O)C=C1COC(=O)[C@@]12O` [STROBILACTONE A] displayed an IC50 of 19.8 µM.
`COc1cc(-c2cc(=O)c3c(O)c(O)c(OC)cc3o2)ccc1O`: the inhibition in vivo at 60 mg/kg in [28] came out at 14.6%.
Take `CC1=C[C@@H]2[C@@H]([C@@H](C)C(=O)O)CC[C@@](C)(O)[C@@H]2C[C@H]1O`: the IC50 in experiment [15], in experiment [16] and in [17] was 26.8 to 48.7 µM in each case.
With `C=C1C(=O)O[C@H]2[C@H]1[C@@H](O)C[C@]1(C)O[C@@]13C(=O)C=C(C)[C@H]23`, the IC50 in [29] and in experiment [30] was 7 to 10 µM throughout.
